pIC50: −log10 of the molar value. Converted amounts (≈) assume the structure as drawn. “And” between values parts separate entries of the source, which are not always exact repeats. Equal entries are not always repeated. Where two headings read alike, the source gives them in different places.
How the values were obtained:
[1] = molecular target: endogenous BCL6 in OCI-Ly1 cells (Homo sapiens, UniProt P41182); test: cell-based; conditions: for degradation of BCL6 (in words): OCI-Ly1 MSD assay; for MSD degrader assay [OCI-Ly1] Dmax: mean maximal degradation of BCL6
[2] = Microsomal clearance assay (MLM); assay type: in vitro ADME; conditions: female, CD1, pH 7.4; mouse liver microsomes, 1 μM compound
Method: 6. Supplementary experimental: in vitro DMPK assays
6.1 Microsomal clearance assay
Microsomal clearance was determined in female CD1 mice, female Sprague–Dawley rats, and mixed gender human liver microsomes obtained from BioIVT (Peterborough, U.K.) following incubation of 1 μM compound at 37 °C in 0.5 mg/mL microsomal protein, 3 mmol/L MgCl2, 1 mmol/L NADPH, 2.5 mmol/L and 10 mmol/L phosphate buffer (pH 7.4) (all purchased from Sigma-Aldrich, Gillingham, U.K). Reactions were started by addition of the cofactors following 10 min preincubation of microsomes with test compound and were terminated at −1, 0, 5, 10, 15, and 30 min with three volumes of ice-cold methanol containing internal standard. Samples were centrifuged at 2800g for 30 min at 4 °C and the supernatants analyzed.
Control incubations were prepared as above with omission of cofactors. Compound measurements were […]
separation with a 3 min gradient of 0.1% formic acid in methanol on a Kinetex C18, 50 × 2.1 mm 2.6 μm UPLC column (Phenomenex, Macclesfield, UK). […]

[3] = logD7.4 assay (Chrom log D method); assay type: physicochemical; conditions: pH 7.4, read-out: Measured logD7.4
Method: Calibration, validation and in-house compounds were prepared at 1mM in 10% DMSO / 90% Trizma solution (100mM Trizma in 75/25 methanol/water). 3 µL standard injections (with needle wash) of all calibration, validation and in-house samples were made onto a Phenomenex Luna C8 column (3µm, 100 x 4.6 mm, 100A, Phenomenex, Torrence, USA). Chromatographic separation at 30°C was carried out using […]
2 mL/min. The gradient was held at 0:100 water:organic for 0.8 minutes, then returned to the starting conditions of 95:5 water:organic for 0.2 minutes. The column was re-equilibrated for 5 minutes at the […]

[4] = NMR solubility assay; assay type: physicochemical; conditions: kinetic solubility by NMR in HEPES buffer at pH 8, 4% DMSO; read-out: Aq. Sol.
Method: 4. Supplementary experimental: physicochemical assays
0.5 mM TCEP, 10% D2O) was pipetted into the same well and mixed by up-down pipetting 3 times to create […]
It was then separated by centrifugation (1000 rpm
The plate was then sealed and incubated at room temperature for 20 hours, […]
165 µL of the supernatant was transferred to a 3 mm NMR tube (Bruker, Part No. Z112272) using liquid handler SamplePro Tube SJ S (Bruker). The concentration of the solubilized compound in solubility sample is measured by quantitative 1H-NMR using a single external standard (200 µM caffeine (Sigma, C1778) in PBS (pH 7.4) with 1% DMSO-d6).
The detail of the NMR method is as following: NMR data was collected on a Bruker Avance Neo 600 spectrometer equipped with a 5 mm TCI-CryoProbe. The 1H spectrum was referenced to the internal deuterated solvent. The operating frequency for 1H was 600 MHz. All NMR data were acquired at the […]
1H-NMR spectrum was acquired using a Bruker standard 1D lc1pngppsf2 pulse sequence with 32 scans.
The sweep width was 6.2 ppm with O1P set to 8.8 ppm, and the FID contained 16k time-domain data points. Relaxation delay was set to 20 sec. Water signal was suppressed. […]

[5] = molecular target: T1, human BCL6 BTB domain (Homo sapiens, UniProt P41182); conditions: for BCL6 TR-FRET pIC50 mean: mean of replicates
[6] = molecular target: T1, human BCL6 BTB domain; test: biochemical
[7] = OCI-Ly1, read-out: MSD degrader assay [OCI-LY1] Dmax individual replicates, single replicate values
[8] = OCI-Ly1, read-out: MSD degrader assay [OCI-Ly1] Dmax, mean maximal degradation of BCL6, OCI-Ly1 cells, 2 h
[9] = read-out: MSD degrader assay [OCI-LY1] DC50 individual replicates, single replicate values
[10] = read-out: MSD degrader assay [OCI-Ly1] DC50, geometric mean, OCI-Ly1 cells, 2 h incubation
[11] = reversed-phase HPLC on Phenomenex Luna C8 column
[12] = read-out: BCL6 TR-FRET IC50, geometric mean, BCOR-AF633 peptide, 2 h incubation
[13] = read-out: BCL6 TR-FRET IC50 individual replicates, single replicate values
[14] = BCL6 TR-FRET IC50 individual replicates, single replicate values

SMILES: CC(=O)N[C@H]1C[C@@H](C)CN(c2ncc(Cl)c(Nc3ccc4c(c3)c3c(c(=O)n4C)OCC(F)(F)[C@H](C4CC4)N3)n2)C1 [10b, N-((3S,5R)-1-(5-Chloro-4-(((S)-2-cyclopropyl-3,3-difluoro-7-methyl-6-oxo-1,2,3,4,6,7-hexahydro-[1,4]oxazepino[2,3-c]quinolin-10-yl)amino)pyrimidin-2-yl)-5-methylpiperidin-3-yl)acetamide]
- Dmax [1, 7]: < 30%
- Dmax [1, 8]: < 30%
- degradation of BCL6 (in words) [1]: nondegrading isomer
- MSD degrader assay [OCI-Ly1] Dmax ([1]; OCI-Ly1 cells, 2 h): > 30%
- DC50 [1, 9]: > 2000 nM
- DC50 [1, 10]: > 2000 nM
- microsomal CLint at 0.5 h, 1 µM [2]: 134 µL/min/mg
- chromatographic logD [3, 11]: 2.8
- solubility kinetic at 20 h [4]: 15 µM (≈ 8.82 µg/mL)
- BCL6 TR-FRET pIC50 mean [5]: 8.5388
- pIC50 [5, 12]: 8.54
- pIC50 [5, 13]: 8.52
- pIC50 [6, 14]: 8.46 and 8.59 and 8.60

SMILES: C[C@H]1C[C@@H](N(C)C)CN(c2ncc(Cl)c(Nc3ccc4c(c3)c3c(c(=O)n4C)OCC(F)(F)[C@H](C4CC4)N3)n2)C1 [11a, (S)-10-((5-Chloro-2-((3R,5S)-3-(dimethylamino)-5-methylpiperidin-1-yl)pyrimidin-4-yl)amino)-2-cyclopropyl-3,3-difluoro-7-methyl-1,2,3,4-tetrahydro-[1,4]oxazepino[2,3-c]quinolin-6(7H)-one]
- Dmax [1, 7]: 53.6%
- degradation of BCL6 (in words) [1]: potently degrading isomer
- MSD degrader assay [OCI-Ly1] Dmax ([1]; OCI-Ly1 cells, 2 h): 56%
- MSD degrader assay [OCI-LY1] pDC50 mean ([1]; mean of replicates): 8.0099
- DC50 [1, 9]: 8.3 nM and 8.9 nM and 12.7 nM
- DC50 [1, 10]: 9.8 nM
- MSD degrader assay [OCI-LY1] Dmax individual replicates ([1]; single replicate values): 60.7% and 54.9%
- microsomal CLint at 0.5 h, 1 µM [2]: 876 µL/min/mg
- chromatographic logD [3, 11]: 3.3
- solubility kinetic at 20 h [4]: 60 µM (≈ 34.4 µg/mL)
- BCL6 TR-FRET pIC50 mean [5]: 8.4757
- pIC50 [5, 12]: 8.48
- pIC50 [5, 13]: 8.49 and 8.48
- pIC50 [6, 14]: 8.41 and 8.52

SMILES: C[C@@H]1C[C@H](N(C)C)CN(c2ncc(Cl)c(Nc3ccc4c(c3)c3c(c(=O)n4C)OCC(F)(F)[C@H](C4CC4)N3)n2)C1 [11b, (S)-10-((5-Chloro-2-((3S,5R)-3-(dimethylamino)-5-methylpiperidin-1-yl)pyrimidin-4-yl)amino)-2-cyclopropyl-3,3-difluoro-7-methyl-1,2,3,4-tetrahydro-[1,4]oxazepino[2,3-c]quinolin-6(7H)-one]
- Dmax [1, 7]: < 30%
- Dmax [1, 8]: < 30%
- degradation of BCL6 (in words) [1]: nondegrading isomer
- MSD degrader assay [OCI-Ly1] Dmax ([1]; OCI-Ly1 cells, 2 h): > 30%
- DC50 [1, 9]: > 2000 nM
- DC50 [1, 10]: > 2000 nM
- microsomal CLint at 0.5 h, 1 µM [2]: 681 µL/min/mg
- chromatographic logD [3, 11]: 3.3
- solubility kinetic at 20 h [4]: 58 µM (≈ 33.3 µg/mL)
- BCL6 TR-FRET pIC50 mean [5]: 8.4399
- pIC50 [5, 12]: 8.44
- pIC50 [6, 14]: 8.48 and 8.52 and 8.32

SMILES: Cn1c(=O)c2c(c3cc(Nc4nc(N5CCC[C@@H](O)C5)ncc4Cl)ccc31)N[C@@H](C1CC1)C(F)(F)CO2 [14a, (S)-10-((5-chloro-2-((R)-3-hydroxypiperidin-1-yl)pyrimidin-4-yl)amino)-2-cyclopropyl-3,3-difluoro-7-methyl-1,2,3,4-tetrahydro-[1,4]oxazepino[2,3-c]quinolin-6(7H)-one]
- Dmax [1, 7]: 34.9%
- Dmax [1, 8]: 34.9%
- MSD degrader assay [OCI-Ly1] Dmax ([1]; OCI-Ly1 cells, 2 h): 35%
- DC50 [1, 9]: > 2000 nM
- DC50 [1, 10]: > 2000 nM
- microsomal CLint at 0.5 h, 1 µM [2]: 88 µL/min/mg
- chromatographic logD [3]: 2.7
- solubility kinetic at 20 h [4]: 25 µM (≈ 13.3 µg/mL)
- pIC50 [5, 12]: 8.52
- pIC50 [5, 13]: 8.51
- pIC50 [6, 14]: 8.77 and 8.62
- pIC50 ([6]; BCL6 TR-FRET pIC50 mean, mean of replicates): 8.61
